Source: ChEMBL document CHEMBL5143732 (J Med Chem, 2022)
Converted amounts (≈) assume the structure as drawn.

Assays:
Candida albicans = test: Antifungal activity against Candida albicans assessed as inhibition of fungal growth measured after 48 hrs by CLSI based agar dilution method; format: functional
Pichia kudriavzevii [1] = test: Antifungal activity against Candida krusei assessed as inhibition of fungal growth measured after 48 hrs by CLSI based agar dilution method; format: functional
Candida parapsilosis = test: Antifungal activity against Candida parapsilosis assessed as inhibition of fungal growth measured after 48 hrs by CLSI based agar dilution method; format: functional; conditions: Lodderomyces parapsilosis
Candida tropicalis = test: Antifungal activity against Candida tropicalis assessed as inhibition of fungal growth measured after 48 hrs by CLSI based agar dilution method; format: functional
Pichia kudriavzevii [2] = test: Antifungal activity against Candida krusei ATCC 6258 assessed as inhibition of fungal growth measured after 48 hrs by CLSI based agar dilution method; format: functional
Cryptococcus neoformans = test: Antifungal activity against Cryptococcus neoformans ATCC 32609 assessed as inhibition of fungal growth measured after 48 hrs by CLSI based agar dilution method; format: functional
[3] = Hemolytic activity in human RBC measured after 1 hr; format: toxicity, cell-based, Erythrocyte; conditions: red blood cells (erythrocytes)
[4] = Elimination half life in ICR (CD-1) mouse at 1 mg/kg, iv measured upto 24 hrs; format: ADME, organism-based; conditions: in vivo, read-out: beta t1/2 (converted)
[5] = AUClast in ICR (CD-1) mouse at 1 mg/kg, iv measured upto 24 hrs; format: ADME, organism-based; set-up: dose 1 mg/kg, time < 24 hrs, route iv; conditions: ICR (CD-1), in vivo
[6] = Observed AUC infinity in ICR (CD-1) mouse at 1 mg/kg, iv measured upto 24 hrs; format: ADME, organism-based; set-up: dose 1 mg/kg, time < 24 hrs, route iv; conditions: ICR (CD-1), in vivo
[7] = Observed clearance in ICR (CD-1) mouse at 1 mg/kg, iv measured upto 24 hrs; format: ADME, organism-based; set-up: dose 1 mg/kg, time < 24 hrs, route iv; conditions: in vivo, route iv, dose 1 mg/kg, time < 24 hrs, read-out: CL
[8] = Observed MRT infinity in ICR (CD-1) mouse at 1 mg/kg, iv measured upto 24 hrs; format: ADME, organism-based; conditions: in vivo
[9] = Observed volume of distribution at steady state in ICR (CD-1) mouse at 1 mg/kg, iv measured upto 24 hrs; format: ADME, organism-based; conditions: in vivo, read-out: Vdss

C[C@@H]1[C@H](O)[C@@H](C)/C=C/C=C/C=C/C=C/C=C/C=C/C=C/[C@H](O[C@@H]2O[C@H](C)[C@@H](O)[C@H](NC(=O)CN)[C@@H]2O)C[C@@H]2O[C@](O)(C[C@@H](O)C[C@@H](O)[C@H](O)CC[C@@H](O)C[C@@H](O)CC(=O)O[C@H]1C)C[C@H](O)[C@H]2C(=O)N1CCN(CCO)CC1
MIC (Candida albicans): 0.25 µg/mL (≈ 0.229 µM)
MIC (Pichia kudriavzevii [1]): 0.25 µg/mL (≈ 0.229 µM)
MIC (Candida parapsilosis): 0.5 µg/mL (≈ 0.457 µM)
MIC (Candida tropicalis): 0.25 µg/mL (≈ 0.229 µM)
MIC (Pichia kudriavzevii [2]): 8 µg/mL (≈ 7.32 µM)
MIC (Cryptococcus neoformans): 0.25 µg/mL (≈ 0.229 µM)
HC50 at 1 h [3]: 30.6 µM
half-life [4]: 7.72 h
AUC(0-t) at 24 h [5]: 3060 ng·h/mL
AUC(0-inf) [6]: 3440 ng·h/mL
clearance [7]: 4.85 mL/min/kg
MRT inf [8]: 10.5 h
Vd [9]: 3.06 L/kg

C[C@@H]1[C@H](O)[C@@H](C)/C=C/C=C/C=C/C=C/C=C/C=C/C=C/[C@H](O[C@@H]2O[C@H](C)[C@@H](O)[C@H](NC(=O)CN)[C@@H]2O)C[C@@H]2O[C@](O)(C[C@@H](O)C[C@@H](O)[C@H](O)CC[C@@H](O)C[C@@H](O)CC(=O)O[C@H]1C)C[C@H](O)[C@H]2C(=O)NCCN
MIC (Candida albicans): < 0.008 µg/mL
MIC (Pichia kudriavzevii [1]): 0.06 µg/mL (≈ 0.0586 µM)
MIC (Candida parapsilosis): 0.015 µg/mL (≈ 0.0147 µM)
MIC (Candida tropicalis): 0.03 µg/mL (≈ 0.0293 µM)
MIC (Pichia kudriavzevii [2]): 0.5 µg/mL (≈ 0.489 µM)
MIC (Cryptococcus neoformans): < 0.008 µg/mL
HC50 at 1 h [3]: 18.2 µM
half-life [4]: 18.2 h
AUC(0-t) at 24 h [5]: 11500 ng·h/mL
AUC(0-inf) [6]: 18300 ng·h/mL
clearance [7]: 0.913 mL/min/kg
MRT inf [8]: 24.9 h
Vd [9]: 1.37 L/kg

C[C@@H]1[C@H](O)[C@@H](C)/C=C/C=C/C=C/C=C/C=C/C=C/C=C/[C@H](O[C@@H]2O[C@H](C)[C@@H](O)[C@H](NC(=O)CCN)[C@@H]2O)C[C@@H]2O[C@](O)(C[C@@H](O)C[C@@H](O)[C@H](O)CC[C@@H](O)C[C@@H](O)CC(=O)O[C@H]1C)C[C@H](O)[C@H]2C(=O)N1CCN(CCO)CC1
MIC (Candida albicans): 0.5 µg/mL (≈ 0.452 µM)
MIC (Pichia kudriavzevii [1]): 0.5 µg/mL (≈ 0.452 µM)
MIC (Candida parapsilosis): 0.5 µg/mL (≈ 0.452 µM)
MIC (Candida tropicalis): 1 µg/mL (≈ 0.903 µM)
MIC (Pichia kudriavzevii [2]): 8 µg/mL (≈ 7.22 µM)
MIC (Cryptococcus neoformans): 0.25 µg/mL (≈ 0.226 µM)
HC50 at 1 h [3]: 24.4 µM
half-life [4]: 11.2 h
AUC(0-t) at 24 h [5]: 4890 ng·h/mL
AUC(0-inf) [6]: 6210 ng·h/mL
clearance [7]: 2.7 mL/min/kg
MRT inf [8]: 15.3 h
Vd [9]: 2.48 L/kg

CNCC(=O)N[C@@H]1[C@H](O)[C@H](O[C@H]2/C=C/C=C/C=C/C=C/C=C/C=C/C=C/[C@H](C)[C@@H](O)[C@@H](C)[C@H](C)OC(=O)C[C@H](O)C[C@H](O)CC[C@@H](O)[C@H](O)C[C@H](O)C[C@]3(O)C[C@H](O)[C@@H](C(=O)N4CCN(CC(O)CO)CC4)[C@H](C2)O3)O[C@H](C)[C@H]1O (stereo not given in full)
MIC (Candida albicans): 1 µg/mL (≈ 0.879 µM)
MIC (Pichia kudriavzevii [1]): 1 µg/mL (≈ 0.879 µM)
MIC (Candida parapsilosis): 0.25 µg/mL (≈ 0.22 µM)
MIC (Candida tropicalis): 1 µg/mL (≈ 0.879 µM)
MIC (Pichia kudriavzevii [2]): 2 µg/mL (≈ 1.76 µM)
MIC (Cryptococcus neoformans): 0.5 µg/mL (≈ 0.44 µM)
HC50 at 1 h [3]: 9.06 µM

CNCC(=O)N[C@@H]1[C@H](O)[C@H](O[C@H]2/C=C/C=C/C=C/C=C/C=C/C=C/C=C/[C@H](C)[C@@H](O)[C@@H](C)[C@H](C)OC(=O)C[C@H](O)C[C@H](O)CC[C@@H](O)[C@H](O)C[C@H](O)C[C@]3(O)C[C@H](O)[C@@H](C(=O)NCCO)[C@H](C2)O3)O[C@H](C)[C@H]1O
MIC (Candida albicans): 1 µg/mL (≈ 0.963 µM)
MIC (Pichia kudriavzevii [1]): 1 µg/mL (≈ 0.963 µM)
MIC (Candida parapsilosis): 2 µg/mL (≈ 1.93 µM)
MIC (Candida tropicalis): 2 µg/mL (≈ 1.93 µM)
MIC (Pichia kudriavzevii [2]): 0.125 µg/mL (≈ 0.12 µM)
MIC (Cryptococcus neoformans): 0.5 µg/mL (≈ 0.482 µM)
HC50 at 1 h [3]: 1.79 µM

CNCC(=O)N[C@@H]1[C@H](O)[C@H](O[C@H]2/C=C/C=C/C=C/C=C/C=C/C=C/C=C/[C@H](C)[C@@H](O)[C@@H](C)[C@H](C)OC(=O)C[C@H](O)C[C@H](O)CC[C@@H](O)[C@H](O)C[C@H](O)C[C@]3(O)C[C@H](O)[C@@H](C(=O)N4CCN(CC(C)(C)O)CC4)[C@H](C2)O3)O[C@H](C)[C@H]1O
MIC (Candida albicans): 0.25 µg/mL (≈ 0.22 µM)
MIC (Pichia kudriavzevii [1]): 0.5 µg/mL (≈ 0.44 µM)
MIC (Candida parapsilosis): 4 µg/mL (≈ 3.52 µM)
MIC (Candida tropicalis): 1 µg/mL (≈ 0.881 µM)
MIC (Pichia kudriavzevii [2]): 16 µg/mL (≈ 14.1 µM)
MIC (Cryptococcus neoformans): 0.5 µg/mL (≈ 0.44 µM)
HC50 at 1 h [3]: 27.7 µM
